Laboratory results: patent US20070027079A1, “GHRP 2 strips” (priority 2005, published 2007)
Where a SMILES comes first, the peptide text is derived from it. [ ]: non-standard residue; d: D form. d2Nal = N[C@H](Cc1ccc2ccccc2c1)C(=O)O

Assay: Certificate of analysis GHRP-2: solubility
Format: physicochemical
Details: specification: soluble in water and 1% acetic acid at a concentration of ≧1 mg/ml to give a clear, colorless solution; batch 6P-20030403

Solubility: Complies
Compound: C[C@H](NC(=O)[C@@H](Cc1ccc2ccccc2c1)NC(=O)[C@@H](C)N)C(=O)N[C@@H](Cc1c[nH]c2ccccc12)C(=O)N[C@H](Cc1ccccc1)C(=O)N[C@@H](CCCCN)C(N)=O [GHRP-2, D-Ala-D-Nal-Ala-Trp-D-Phe-Lys-NH2] (H-[dA][d2Nal]AW[dF]K-NH2)
